In patent US8796268B2, “Heteroaryls and uses thereof” (Millennium Pharmaceuticals, Inc., priority 2010, dated 2014) one finds inhibition data, which are given here for eight molecules.

Holding throughout (assay type): biochemical
One assay addresses T1, Human PI3K alpha (Homo sapiens, UniProt P42336).
T1 construct: His (N); host or cells: SF9 insect cells (baculovirus)
Briefly: Human PI3K alpha enzyme assay (HTRF). The note with it: at a 1.1 μM concentration; read-out: PI3Kα Percent Inhibition. A general note: In TR-FRET formats the signal depends on donor and acceptor labels being close together.

A further assay addresses T2, Human PI3K beta (Homo sapiens, UniProt P42338).
T2 construct: His (N); host or cells: SF9 insect cells (baculovirus)
The assay can be described thus: Human PI3K beta enzyme assay (HTRF). As to conditions: at a 1.1 μM concentration; read-out: PI3β Percent Inhibition. In short, it runs like this: (§1)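 Compounds were mixed with 25 uM ATP, then with 3.5 uM di-C8 PI(4,5)P2 and His-tagged PI3K isoform (β 5.25 nM, δ 0.75 nM, γ 5 nM) at pH 7.00. After 30 min at room temperature, EDTA stopped the reaction and PIP3 was measured by HTRF over 1 h.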

A further assay concerns the target T3, Human PI3K delta (Homo sapiens, UniProt O00329).
T3 construct: His (N); host or cells: SF9 insect cells (baculovirus)
The assay can be described thus: Human PI3K delta enzyme assay (HTRF). As to conditions: at a 1.0 μM concentration; read-out: PI3Kδ Percent Inhibition. In a few lines: as §1

Another assay deals with T4, Human PI3K gamma (Homo sapiens, UniProt P48736).
T4 construct: His (N); host or cells: SF9 insect cells (baculovirus)
Briefly: Human PI3K gamma enzyme assay (HTRF). The note with it: at a 1.0 μM concentration; read-out: PI3Kγ Percent Inhibition. In short, it runs like this: as §1

A further assay has as its target T5, Human VPS34 (Homo sapiens, UniProt Q8NEB9).
T5 construct: GST (with thrombin site, pDEST20-Thrombin) (N); host or cells: SF9 insect cells (baculovirus)
The assay can be described thus: Human VPS34 enzyme assay (Adapta Universal Kinase Assay). The note with it: at a 1.0 μM concentration; read-out: VPS34 Percent Inhibition. From the text:
The catalytic subunits of PI3Ks are cloned into either pDEST8(p110 alpha) or pDEST10(p110beta, p110delta, and p110gamma) as N-terminal His tagged fusion proteins using the Gateway system (Invitrogen, catalog#11804-010 for pDEST8 and 11806-015 for pDEST10). The sequences are verified before recombinant protein expression using the Baculovirus Expression System with Gateway® Technology. The accession numbers for the subunits are as follows: • p110 alpha (GB:U79143) • p110beta (GB: S67334) • p110delta (GB: U86453) • p110gamma (GB: X83368) • The regulatory subunits of PI3Ks are cloned into pDEST8 as un-tagged protein using the Gateway system (Catalog#11804-010). The sequences are verified before recombinant protein expression using the Baculovirus Expression System with Gateway® Technology. The accession numbers for the subunits are as following: • p85 alpha (GB: BC030815) • p101(GB: AB028925) • VPS34 (accession number GB:BC033004) is cloned into pDEST20—Thombin as N-terminal GST tagged fusion proteins using the Gateway system (Invitrogen, catalog#11804-013). The sequences are verified before recombinant protein expression using the Baculovirus Expression System with Gateway® Technology.
For expression VPS34 was infected at 1MOI in SF9 cells and harvested 72 hours post infection.
For purification, VPS34 is purified by Glutathione Sepharose 4 Fast Flow (GE Healthcare #17-5132-03) followed by HiTrap Q (GE Healthcare #17-1153-01).
3) VPS34 is assayed using Adapta™ Universal Kinase Assay Kit (Invitrogen).
4) Human VPS34 enzyme assay method
100 nL compounds in DMSO are added to wells of a 384 well microtitre plate (Greiner 780076). At room temperature: 5 ul VPS34 reaction buffer (Invitrogen Assay Buffer Q (diluted 1 in 5 with nanopure water) plus 2 mM DTT and 2 mM MnCl2) containing ATP (20 uM, Promega) and 200 uM PI—PS substrate (Invitrogen PV5122) is added followed immediately by 5 ul VPS34 reaction buffer (as above) containing VPS34 (5 nM, Millennium Protein Sciences Group) and the mixture is incubated with shaking at room temperature for 1 hour. Then 5 ul VPS34 stop-detect mix (as per Invitrogen Adapta Assay kit (PV5009) instructions (contains kinase quench buffer, TR-FRET buffer, Adapta Eu anti-ADP antibody and Alexa Fluor 647 ADP tracer)) is added to quench the reaction. The plates are then incubated for 30 minutes at room temperature with shaking and then read on a BMG PheraStar Plus reader.
For the assay methods described above, test compound percent inhibition, at various concentrations, is calculated relative to control (DMSO and EDTA) treated samples. Compound concentration versus percent inhibition curves are fitted to generate IC50 values. One skilled in the art will appreciate that the values generated either as percentage inhibition at a single concentration or IC50 values are subject to experimental variation.

Each structure is given as a SMILES string.

T3 sequence (O00329 whole entry): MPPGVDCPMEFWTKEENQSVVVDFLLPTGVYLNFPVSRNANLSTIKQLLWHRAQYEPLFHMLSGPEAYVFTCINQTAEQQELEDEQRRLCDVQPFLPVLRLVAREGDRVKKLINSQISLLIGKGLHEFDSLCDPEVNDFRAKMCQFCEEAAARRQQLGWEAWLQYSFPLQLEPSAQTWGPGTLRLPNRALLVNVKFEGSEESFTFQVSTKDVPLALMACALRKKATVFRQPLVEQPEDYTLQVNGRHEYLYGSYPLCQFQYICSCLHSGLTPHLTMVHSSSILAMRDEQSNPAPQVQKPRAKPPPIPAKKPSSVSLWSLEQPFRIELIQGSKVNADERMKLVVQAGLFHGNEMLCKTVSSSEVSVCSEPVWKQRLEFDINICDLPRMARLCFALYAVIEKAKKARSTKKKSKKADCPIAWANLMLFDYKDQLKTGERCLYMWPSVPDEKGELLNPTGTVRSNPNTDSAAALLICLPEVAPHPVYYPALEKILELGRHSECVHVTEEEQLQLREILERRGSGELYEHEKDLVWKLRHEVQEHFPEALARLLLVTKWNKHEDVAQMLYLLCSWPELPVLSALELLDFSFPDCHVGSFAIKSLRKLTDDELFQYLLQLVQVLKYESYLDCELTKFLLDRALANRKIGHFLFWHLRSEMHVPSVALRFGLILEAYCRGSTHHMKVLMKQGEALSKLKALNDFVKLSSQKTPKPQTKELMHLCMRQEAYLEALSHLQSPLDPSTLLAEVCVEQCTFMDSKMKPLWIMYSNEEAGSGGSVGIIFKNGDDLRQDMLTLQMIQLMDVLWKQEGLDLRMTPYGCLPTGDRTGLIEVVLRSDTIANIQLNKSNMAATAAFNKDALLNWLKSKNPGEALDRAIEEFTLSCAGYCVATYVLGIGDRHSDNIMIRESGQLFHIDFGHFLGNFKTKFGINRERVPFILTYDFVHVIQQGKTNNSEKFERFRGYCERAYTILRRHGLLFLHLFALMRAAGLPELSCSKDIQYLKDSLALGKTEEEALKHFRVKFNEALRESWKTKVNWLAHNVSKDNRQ
T3 sequence (P27986 whole entry partner): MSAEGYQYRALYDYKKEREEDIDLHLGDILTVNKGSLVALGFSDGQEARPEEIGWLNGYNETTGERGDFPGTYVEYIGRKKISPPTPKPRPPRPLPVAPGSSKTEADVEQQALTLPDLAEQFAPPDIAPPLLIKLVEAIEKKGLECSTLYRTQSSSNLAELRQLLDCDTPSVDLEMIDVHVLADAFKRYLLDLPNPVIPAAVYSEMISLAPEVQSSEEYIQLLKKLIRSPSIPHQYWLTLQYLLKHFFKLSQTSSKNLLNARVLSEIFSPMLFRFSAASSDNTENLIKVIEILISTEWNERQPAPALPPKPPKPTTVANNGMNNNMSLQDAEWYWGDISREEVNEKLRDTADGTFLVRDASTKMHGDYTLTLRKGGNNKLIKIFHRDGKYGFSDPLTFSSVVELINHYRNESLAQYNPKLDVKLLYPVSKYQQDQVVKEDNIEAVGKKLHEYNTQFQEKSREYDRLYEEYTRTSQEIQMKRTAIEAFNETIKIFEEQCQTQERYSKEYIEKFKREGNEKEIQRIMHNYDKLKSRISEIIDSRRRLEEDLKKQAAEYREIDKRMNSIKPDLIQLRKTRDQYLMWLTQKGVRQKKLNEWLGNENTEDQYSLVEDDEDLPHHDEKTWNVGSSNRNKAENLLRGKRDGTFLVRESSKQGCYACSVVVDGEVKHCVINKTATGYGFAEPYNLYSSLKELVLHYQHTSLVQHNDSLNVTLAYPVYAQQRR
T2 sequence (P42338 whole entry): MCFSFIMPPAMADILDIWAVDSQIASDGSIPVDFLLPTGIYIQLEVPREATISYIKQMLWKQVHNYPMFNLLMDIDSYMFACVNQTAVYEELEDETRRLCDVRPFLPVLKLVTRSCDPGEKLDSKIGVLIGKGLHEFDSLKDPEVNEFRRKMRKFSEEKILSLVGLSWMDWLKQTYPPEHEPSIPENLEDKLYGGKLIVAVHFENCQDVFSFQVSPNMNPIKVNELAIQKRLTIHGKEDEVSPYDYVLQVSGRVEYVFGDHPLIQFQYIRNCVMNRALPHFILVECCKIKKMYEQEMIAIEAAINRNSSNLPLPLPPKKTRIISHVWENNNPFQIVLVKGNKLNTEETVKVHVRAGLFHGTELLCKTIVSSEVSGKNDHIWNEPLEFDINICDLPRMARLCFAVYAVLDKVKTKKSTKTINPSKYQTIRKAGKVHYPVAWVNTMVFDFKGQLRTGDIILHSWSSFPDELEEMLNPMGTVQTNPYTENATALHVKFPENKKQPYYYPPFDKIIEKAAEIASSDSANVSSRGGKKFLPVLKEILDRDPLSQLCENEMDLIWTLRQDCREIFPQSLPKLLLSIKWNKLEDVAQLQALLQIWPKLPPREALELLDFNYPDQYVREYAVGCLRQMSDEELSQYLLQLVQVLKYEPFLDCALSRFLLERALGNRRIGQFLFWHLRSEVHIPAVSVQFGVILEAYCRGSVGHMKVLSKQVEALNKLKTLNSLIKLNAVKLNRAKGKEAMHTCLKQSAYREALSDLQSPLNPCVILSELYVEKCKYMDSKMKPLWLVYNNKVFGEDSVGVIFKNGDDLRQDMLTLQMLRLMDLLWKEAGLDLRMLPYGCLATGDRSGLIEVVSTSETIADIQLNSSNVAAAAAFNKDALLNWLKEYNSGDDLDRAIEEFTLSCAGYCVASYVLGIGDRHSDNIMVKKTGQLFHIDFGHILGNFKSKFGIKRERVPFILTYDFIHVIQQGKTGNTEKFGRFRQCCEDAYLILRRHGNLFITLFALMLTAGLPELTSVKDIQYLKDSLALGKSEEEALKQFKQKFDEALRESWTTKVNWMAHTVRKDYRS
T2 sequence (P27986 whole entry partner): as the sequence (P27986 whole entry partner) above
T5 sequence (Q8NEB9 whole entry): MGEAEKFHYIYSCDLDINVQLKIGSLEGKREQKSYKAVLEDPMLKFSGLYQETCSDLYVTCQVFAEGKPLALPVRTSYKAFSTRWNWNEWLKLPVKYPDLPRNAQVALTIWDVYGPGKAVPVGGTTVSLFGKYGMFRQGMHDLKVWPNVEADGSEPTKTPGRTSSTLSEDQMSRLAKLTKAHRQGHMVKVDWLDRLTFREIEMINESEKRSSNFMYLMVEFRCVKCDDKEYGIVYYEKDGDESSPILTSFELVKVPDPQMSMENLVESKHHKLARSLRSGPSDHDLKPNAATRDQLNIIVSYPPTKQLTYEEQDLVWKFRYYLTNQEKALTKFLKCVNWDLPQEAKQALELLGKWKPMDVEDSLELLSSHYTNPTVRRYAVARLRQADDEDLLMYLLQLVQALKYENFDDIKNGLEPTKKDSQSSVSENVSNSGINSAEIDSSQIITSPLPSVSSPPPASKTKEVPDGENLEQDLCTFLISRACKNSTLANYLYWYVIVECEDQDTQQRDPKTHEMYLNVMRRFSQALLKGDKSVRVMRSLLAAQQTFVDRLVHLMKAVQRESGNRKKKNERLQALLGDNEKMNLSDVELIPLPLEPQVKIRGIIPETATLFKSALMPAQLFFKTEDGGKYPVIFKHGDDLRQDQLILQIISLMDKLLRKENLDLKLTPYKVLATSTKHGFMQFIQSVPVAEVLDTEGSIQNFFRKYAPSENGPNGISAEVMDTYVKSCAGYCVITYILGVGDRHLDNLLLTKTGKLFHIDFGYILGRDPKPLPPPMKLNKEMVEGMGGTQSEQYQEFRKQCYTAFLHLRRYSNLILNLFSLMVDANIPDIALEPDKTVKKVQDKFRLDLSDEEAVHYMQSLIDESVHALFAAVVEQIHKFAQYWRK
T1 sequence (P42336 whole entry): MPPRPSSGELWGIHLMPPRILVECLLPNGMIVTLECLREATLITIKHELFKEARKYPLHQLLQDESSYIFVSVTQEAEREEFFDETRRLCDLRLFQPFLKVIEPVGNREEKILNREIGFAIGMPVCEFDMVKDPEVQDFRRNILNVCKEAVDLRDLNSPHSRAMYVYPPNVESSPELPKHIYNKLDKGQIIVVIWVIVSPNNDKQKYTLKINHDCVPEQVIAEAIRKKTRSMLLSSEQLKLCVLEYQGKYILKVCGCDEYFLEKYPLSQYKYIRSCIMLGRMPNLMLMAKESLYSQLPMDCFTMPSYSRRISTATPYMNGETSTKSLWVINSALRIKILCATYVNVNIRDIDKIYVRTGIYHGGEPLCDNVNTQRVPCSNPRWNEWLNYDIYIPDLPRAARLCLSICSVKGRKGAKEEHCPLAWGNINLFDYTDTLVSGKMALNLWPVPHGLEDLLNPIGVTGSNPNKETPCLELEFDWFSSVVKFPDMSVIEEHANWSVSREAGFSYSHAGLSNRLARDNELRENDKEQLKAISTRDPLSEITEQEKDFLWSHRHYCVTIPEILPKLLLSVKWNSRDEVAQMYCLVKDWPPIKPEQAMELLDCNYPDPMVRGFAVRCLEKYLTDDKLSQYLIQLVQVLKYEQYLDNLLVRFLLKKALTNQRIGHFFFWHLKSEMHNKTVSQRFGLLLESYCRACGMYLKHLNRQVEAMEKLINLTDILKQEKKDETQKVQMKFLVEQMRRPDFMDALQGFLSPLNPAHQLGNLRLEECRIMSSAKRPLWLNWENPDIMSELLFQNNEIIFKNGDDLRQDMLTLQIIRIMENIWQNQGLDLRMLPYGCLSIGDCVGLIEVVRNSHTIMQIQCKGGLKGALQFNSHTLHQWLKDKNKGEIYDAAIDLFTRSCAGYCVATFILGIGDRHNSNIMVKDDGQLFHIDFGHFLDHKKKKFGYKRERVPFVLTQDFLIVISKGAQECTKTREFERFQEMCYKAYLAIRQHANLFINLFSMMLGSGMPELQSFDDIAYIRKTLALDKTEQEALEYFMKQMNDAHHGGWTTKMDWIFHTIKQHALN
T1 sequence (P27986 whole entry partner): as the sequence (P27986 whole entry partner) above

A word on the inhibition: it is the change of the read-out against control, counted positive when it falls. Take `CC(c1ccc(Cl)cc1)c1nc(N2CCOCC2)sc1C(=O)O` (stereo not shown) [Compound 121, 4-[1-(4-chlorophenyl)ethyl]-2-(morpholin-4-yl)-1,3-thiazole-5-carboxylic acid]: the values for the inhibition at 1.1 µM on Human PI3K alpha and on Human PI3K beta were 11% and 59%, respectively. The figures for the inhibition at 1 µM at Human PI3K delta, on Human PI3K gamma and on Human VPS34 were 77.3%, 7.3% and 64.8%, respectively.

On to `COc1cc(Cc2c(C(=O)O)sc(N3CCOCC3)c2C#N)ccc1Cl` [Compound 122], for which the inhibition at 1.1 µM on Human PI3K alpha was 49%; on Human PI3K beta, 106%. Also, the inhibition at 1 µM at Human PI3K delta stood at 96.2%; at Human PI3K gamma, 49.6%; at Human VPS34, 55.2%.

On to `N#Cc1c(N2CCOCC2)sc(C(=O)O)c1Cc1ccc(Cl)cc1F` [Compound 123], for which the inhibition at 1.1 µM stood at 64% on Human PI3K alpha and 105% at Human PI3K beta. Moreover, the inhibition at 1 µM on Human PI3K delta turned out to be 96.8%; on Human PI3K gamma it was 36.6%; at Human VPS34, 45.1%.

Turning to `N#Cc1c(N2CCOCC2)sc(C(=O)O)c1Cc1ccc(Cl)c(Cl)c1` [Compound 124], the inhibition at 1.1 µM on Human PI3K alpha is 79%; at Human PI3K beta it was 109%. Moreover, the inhibition at 1 µM at Human PI3K delta came to 112%; on Human PI3K gamma, 74.2%; on Human VPS34, 78.8%.

For the molecule `COc1cc(Cl)ccc1Cc1c(C(=O)O)sc(N2CCOCC2)c1C#N` [Compound 125], the inhibition at 1.1 µM on Human PI3K alpha amounted to 46%; at Human PI3K beta it was 99%. Besides, the inhibition at 1 µM stood at 85.1% on Human PI3K delta, 25.9% at Human PI3K gamma and 37.1% at Human VPS34.

`N#Cc1c(N2CCOCC2)sc(C(=O)O)c1Cc1c(F)cc(Cl)cc1F` [Compound 126]: the inhibition at 1.1 µM on Human PI3K alpha came out at 42%; at Human PI3K beta, 103%. Besides, the inhibition at 1 µM on Human PI3K delta is 100%; at Human PI3K gamma, 37.6%; at Human VPS34, 44%.

On to `COc1cc(Cc2c(C(=O)O)sc(N3CCOCC3)c2C#N)c(F)cc1Cl` [Compound 127], for which the inhibition at 1.1 µM at Human PI3K alpha turned out to be 40%; on Human PI3K beta, 110%. For the same molecule, the inhibition at 1 µM at Human PI3K delta was found to be 100%; on Human PI3K gamma, 55%; on Human VPS34, 33.7%.

`O=C(O)c1sc(N2CCOCC2)nc1Cc1ccc2cc(F)ccc2c1` [Compound 128]: the inhibition at 1.1 µM on Human PI3K alpha amounted to 46%; on Human PI3K beta, 106%. Besides, the inhibition at 1 µM at Human PI3K delta worked out at 114%; at Human PI3K gamma, 63.4%; at Human VPS34, 88.1%.
